Experimental data published in PubChem BioAssay (NCI).
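GI50 marks 50% less growth. At the TGI there is no net growth.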

Tests used:
Experiment in all cases: inhibition of tumour cell growth, NCI panel, 384-well format
[1] = test system: 786-0 renal
[2] = test system: A498 renal
[3] = test system: A549 NSCLC
[4] = test system: ACHN renal
[5] = test system: BT-549 breast
[6] = test system: CAKI-1 renal
[7] = test system: COLO 205 colon
[8] = test system: DU-145 prostate
[9] = test system: EKVX NSCLC
[10] = test system: HCT-116 colon
[11] = test system: HCT-15 colon
[12] = test system: HL-60(TB) leukemia
[13] = test system: HOP-62 NSCLC
[14] = test system: HOP-92 NSCLC
[15] = test system: HS 578T breast
[16] = test system: HT29 colon
[17] = test system: IGROV1 ovarian
[18] = test system: K-562 leukemia
[19] = test system: KM12 colon
[20] = test system: M14 melanoma
[21] = test system: MALME-3M melanoma
[22] = test system: MCF7 breast
[23] = test system: MDA-MB-231 breast
[24] = test system: MDA-MB-435 melanoma
[25] = test system: MDA-MB-468 breast
[26] = test system: MOLT-4 leukemia
[27] = test system: NCI-H226 lung
[28] = test system: NCI-H23 lung

With `Cc1cc(Oc2ccc3nc(COc4ccc(CC5SC(=O)NC5=O)cc4)n(C)c3c2)cc(C)c1N` (stereo not given) the GI50 [1] was 30.2 µM, the TGI [1] was over 100 µM and the GI50 [2] was 25.7 µM. It also gave a TGI [2] of 62.9 µM, a GI50 [3] of 24.8 µM and a TGI [3] of 58.2 µM. For the same compound, the GI50 [4] was 31.3 µM, the TGI [4] was 98.7 µM and the GI50 [5] was 16.4 µM. The TGI [5] was 31.2 µM, the GI50 [6] was 29.5 µM and the TGI [6] was 74.9 µM. For the same compound, the GI50 [7] was 33.7 µM, the TGI [7] was 82.7 µM and the GI50 [8] was 19 µM. It also gave a TGI [8] of 36 µM, a GI50 [9] of 22.6 µM and a TGI [9] of 44.2 µM. For the same compound, the GI50 [10] was 15.4 µM, the TGI [10] was 30.6 µM and the GI50 [11] was 21.7 µM. The TGI [11] was 43 µM, the GI50 [12] was 14 µM and the TGI [12] was 27.2 µM. For the same compound, the GI50 [13] was 14.6 µM, the TGI [13] was 35 µM and the GI50 [14] was 23.9 µM. The TGI [14] was 60.6 µM, the GI50 [15] was 18.6 µM and the TGI [15] was 42.6 µM. For the same compound, the GI50 [16] was 27.2 µM, the TGI [16] was 73.1 µM and the GI50 [17] was 29.6 µM. It also gave a TGI [17] of 79.5 µM, a GI50 [18] of 18.8 µM and a TGI [18] of 49.1 µM. The GI50 [19] was 17.2 µM, the TGI [19] was 31.8 µM and the GI50 [20] was 19.9 µM. It also gave a TGI [20] of 39.9 µM, a GI50 [21] of 20.7 µM and a TGI [21] of 39.3 µM. For the same compound, the GI50 [22] was 5.45 µM, the TGI [22] was 22 µM and the GI50 [23] was 30.4 µM. For the same compound, the TGI [23] was over 100 µM, the GI50 [24] was 20 µM and the TGI [24] was 43.9 µM. The GI50 [25] was 16.7 µM, the TGI [25] was 36.2 µM and the GI50 [26] was 14 µM. The TGI [26] was 27.1 µM, the GI50 [27] was 22.6 µM and the TGI [27] was 46.7 µM. For the same compound, the GI50 [28] was 15.6 µM.
